11 compounds from US11178872B2 (dated 2021) can be followed below.

As a reminder, the melting point is the temperature, or range, at which the solid turns liquid. `CCCn1cc(-c2nc(C(F)F)c(C(=O)N3CCC(O)(c4ccc(Cl)cc4)CC3)cc2C#N)cn1` had a melting point of 193 to 195 °C.

In the case of `N#Cc1cc(C(=O)N2CCC(O)(c3ccc(Cl)cc3)CC2)c(C(F)F)nc1-c1ccc(Cl)cn1`, the melting point fell in the range of 175 to 177 °C.

On to `N#Cc1cc(C(=O)N2CCC(O)(c3ccc(Cl)cc3)CC2)c(C(F)F)nc1-c1ccnc(F)c1`, for which the melting point lay within 150 to 155 °C.

`CO[C@@]1(c2ccc(C)cc2)[C@@H]2CC[C@H]1CN(C(=O)c1cc(C#N)c(-c3ccc(C(F)(F)F)cc3)nc1C(F)F)C2`: the melting point is 228 to 230 °C.

`Cn1cc(-c2nc(C(F)F)c(C(=O)N3CCC(O)(c4ccc(Cl)cc4)CC3)cc2C#N)cn1` gave a melting point of 220 °C.

`N#Cc1cc(C(=O)N2CCC(c3noc(O)n3)C2)c(C(F)F)nc1-c1ccc(C(F)(F)F)cc1` (centres unmarked) came in with a melting point of 181 to 184 °C.

The compound `N#Cc1cc(C(=O)N2CCC(O)(c3ccccc3Cl)C2)c(C(F)F)nc1-c1ccc(C(F)(F)F)cc1` (centres unmarked) registered a melting point of 191 to 195 °C.

`N#Cc1cc(C(=O)N2CCC(O)(c3ccc(Cl)cc3)CC2)c(C(F)F)nc1-c1ccc(C(F)(F)F)nc1`: the melting point was in the range of 177 to 180 °C.

`Cc1nc(C2CCN(C(=O)c3cc(C#N)c(-c4ccc(C(F)(F)F)cn4)nc3C)CC2)no1` came in with a melting point of 60 to 62 °C.

Take `Cc1nc(C2CCN(C(=O)c3cc(C#N)c(-c4ccc(Cl)s4)nc3C)CC2)no1`: the melting point is 69 to 71 °C.

`N#Cc1cc(C(=O)N2CCC(O)(c3ccc(Cl)cc3)CC2)c(C(F)F)nc1-c1ccc(C(F)(F)F)cc1`: the melting point is 200 °C.
